Test results reported in patent US9187465B2, “Oxazole tyrosine kinase inhibitors” (Sareum Limited, priority 2007, dated 2015).
Structures can show the parent of a compound that is named as a salt.

Columns and labels:
[1] = biological target: T1, human FLT4 (Homo sapiens, UniProt P35916); assay: FLT4 kinase assay (DELFIA enzyme inhibition); type: biochemical; conditions: read-out: FLT4 IC50
T1 construct: a construct expressing the human FLT4 (789-1207) with an amino terminal GST tag; host or cells: Sf9 insect cells (baculovirus)
T1 sequence (P35916 789-1207): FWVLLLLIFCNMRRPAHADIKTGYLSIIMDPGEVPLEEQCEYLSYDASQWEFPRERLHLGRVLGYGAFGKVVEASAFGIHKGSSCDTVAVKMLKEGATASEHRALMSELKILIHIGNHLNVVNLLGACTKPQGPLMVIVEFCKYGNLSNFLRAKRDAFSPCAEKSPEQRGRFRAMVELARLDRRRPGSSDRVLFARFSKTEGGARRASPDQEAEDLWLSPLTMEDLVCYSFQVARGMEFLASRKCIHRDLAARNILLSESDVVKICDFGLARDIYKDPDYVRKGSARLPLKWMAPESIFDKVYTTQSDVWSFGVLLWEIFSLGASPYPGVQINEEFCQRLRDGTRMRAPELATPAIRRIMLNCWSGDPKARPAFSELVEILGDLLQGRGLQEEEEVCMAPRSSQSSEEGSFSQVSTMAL
Experimental: A GST-kinase fusion protein of 70 KDa was produced using sf9 baculovirus expression system, with a construct expressing the human FLT4 (789-1207) with an amino terminal GST tag. The protein was purified by affinity chromatography using glutathione-agarose followed by separation on a gel filtration column.
FLT4 enzyme activity is determined using a Dissociation Enhanced Lanthanide Fluorescent Immunoassay (DELFIA) with a peptide substrate derived from the MET (Tyr 1253) peptide […] with a core sequence […].
The amount of phosphorylated peptide produced is detected by means of a phospho-Tyrosine specific Europium-labelled antibody using Time-Resolved Fluorescence at Excitation 360-35 nm and Emission 620-35 nm.
Assay reactions are set up in a 25 uL final volume on a 96 well plate. […] The reaction is allowed to proceed for 30 minutes at room temperature before stopping with 100 uL Stop solution comprising of 100 mM EDTA, 1×BSA blocker in TBS (Perbio) and 0.05% Surfact-Amps20 (Perbio).
The stopped reaction is transferred to a black 96-well Neutravidin-coated plate (Perbio) and incubated for 30 minutes to capture the biotinylated peptide substrate. After washing wells 3 times with 200 uL TBS/T buffer, Anti-Phospho-Tyr-100 antibody labelled with Eu—N1 (Perkin Elmer AD0159) is added to all wells for 60 minutes at room temperature. After a repeat washing step, DELFIA Enhancement solution (Perkin Elmer) is added to all wells for 5 minutes and the fluorescence measured on a plate reader Analyst HT (Molecular Devices).
The % inhibition of the activity is calculated and plotted in order to determine the concentration of test compound required to inhibit 50% of the enzyme activity (IC50).

[2] = biological target: T2, human Aurora A (Homo sapiens, UniProt O14965); assay: Aurora A kinase assay (DELFIA enzyme inhibition); type: biochemical; conditions: read-out: Aurora A IC50
T2 construct: Histidine tag (N); host or cells: Sf9 insect cells (baculovirus)
T2 sequence (O14965 1-403): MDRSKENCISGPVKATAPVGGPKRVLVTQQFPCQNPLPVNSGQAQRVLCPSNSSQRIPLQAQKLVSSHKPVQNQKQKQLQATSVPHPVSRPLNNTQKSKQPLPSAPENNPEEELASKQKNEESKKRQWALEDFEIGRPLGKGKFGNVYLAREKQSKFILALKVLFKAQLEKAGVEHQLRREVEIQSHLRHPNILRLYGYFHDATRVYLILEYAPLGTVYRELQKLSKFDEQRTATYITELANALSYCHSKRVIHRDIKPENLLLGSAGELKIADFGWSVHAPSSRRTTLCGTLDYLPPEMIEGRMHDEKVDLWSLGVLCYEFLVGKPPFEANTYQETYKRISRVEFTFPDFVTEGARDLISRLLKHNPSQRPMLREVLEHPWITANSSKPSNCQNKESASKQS
Experimental: The protein was purified by one-step affinity chromatography using nickel-agarose […]
Assay reactions are set up in a 25 uL final volume on a 96 well plate. […] The reaction is allowed to proceed for 30 minutes at room temperature before stopping with 100 μL Stop solution comprising of 100 mM EDTA, 1×BSA blocker in TBS (Perbio) and 0.05% Surfact-Amps20 (Perbio).
The stopped reaction is transferred to a black 96-well Neutravidin-coated plate (Perbio) and incubated for 30 minutes to capture the biotinylated peptide substrate. […] After repeating the washing step, the plate is further incubated for one hour with Europium-labelled anti-rabbit antibody (Perkin Elmer AD0105). The wash step is repeated for a final time before DELFIA Enhancement solution (Perkin Elmer) is added to all wells for 5 minutes and the fluorescence measured on a plate reader Analyst HT (Molecular Devices).

IC50 [1] | IC50 [2] | SMILES
< 100 µM |  | COc1ccc(-c2nc(-c3ccccc3)[nH]c2C(N)=O)cc1 [Example A-1, 4-(4-methoxyphenyl)-2-phenyl-1H-imidazole-5-carboxamide]
< 100 µM |  | COc1ccc(-c2nc(-c3ccc(Br)cc3F)[nH]c2C(N)=O)cc1 [Example A-9, 2-(4-bromo-2-fluorophenyl)-4-(4-methoxyphenyl)-1H-imidazole-5-carboxamide]
< 100 µM |  | COc1ccc(-c2nc(-c3cc(OC)cc(OC)c3)[nH]c2C(N)=O)cc1 [Example A-17, 2-(3,5-dimethoxyphenyl)-4-(4-methoxyphenyl)-1H-imidazole-5-carboxamide]
 | < 10 µM | NC(=O)c1[nH]c(-c2c(F)cccc2F)nc1-c1ccccc1F [Example A-18, 2-(2,6-difluorophenyl)-4-(2-fluorophenyl)-1H-imidazole-5-carboxamide]
< 100 µM |  | NC(=O)c1[nH]c(-c2c(F)cccc2F)nc1-c1ccccc1 [Example A-19, 2-(2,6-difluorophenyl)-4-phenyl-1H-imidazole-5-carboxamide]
< 100 µM |  | COc1cccc(-c2nc(-c3c(F)cccc3F)[nH]c2C(N)=O)c1 [Example A-20, 2-(2,6-difluorophenyl)-4-(3-methoxyphenyl)-1H-imidazole-5-carboxamide]
< 10 µM |  | COc1ccc(-c2nc(-c3c(F)cccc3F)oc2C(N)=O)cc1 [Example D-1, 2-(2,6-difluorophenyl)-4-(4-methoxyphenyl)oxazole-5-carboxamide]
< 10 µM |  | NC(=O)c1nc(-c2c(F)cccc2F)oc1-c1cccs1 [Example E-1, 2-(2,6-difluorophenyl)-5-(thiophen-2-yl)oxazole-4-carboxamide]
< 10 µM |  | NC(=O)c1nc(-c2c(F)cccc2F)oc1-c1ccccc1 [Example F-1, 2-(2,6-difluorophenyl)-5-phenyloxazole-4-carboxamide]
< 10 µM |  | NC(=O)c1nc(-c2c(F)cccc2F)oc1-c1ccc(N2CCOCC2)cc1 [Example F-4, 2-(2,6-difluorophenyl)-5-(4-morpholinophenyl)oxazole-4-carboxamide]
< 10 µM |  | CS(=O)(=O)c1ccc(-c2oc(-c3c(F)cccc3F)nc2C(N)=O)cc1 [Example F-6, 2-(2,6-difluorophenyl)-5-(4-(methylsulfonyl)phenyl)oxazole-4-carboxamide]
< 100 µM |  | NC(=O)c1nc(-c2c(F)cccc2F)oc1-c1ccc(CN2CCOCC2)cc1 [Example F-20, 2-(2,6-difluorophenyl)-5-(4-(morpholinomethyl)phenyl)oxazole-4-carboxamide]
< 10 µM |  | NC(=O)c1nc(-c2c(F)cccc2F)oc1-c1ccc(S(N)(=O)=O)cc1 [Example F-21, 5-(4-benzenesulfonamide)-2-(2,6-difluorophenyl)oxazole-4-carboxamide]
< 10 µM |  | COc1ccc(-c2oc(-c3c(F)cccc3F)nc2C(N)=O)cc1OC [Example F-28, 2-(2,6-difluorophenyl)-5-(3,4-dimethoxyphenyl)oxazole-4-carboxamide]
< 100 µM |  | NC(=O)c1nc(-c2c(F)cccc2F)oc1-c1ccc2c(c1)OCO2 [Example F-29, 5-(benzo[d][1,3]dioxol-5-yl)-2-(2,6-difluorophenyl)oxazole-4-carboxamide]
< 10 µM |  | NC(=O)c1nc(-c2c(F)cccc2F)oc1-c1cccc(C(=O)N2CCOCC2)c1 [Example F-30, 2-(2,6-Difluorophenyl)-5-(3-(morpholine-4-carbonyl)phenyl)oxazole-4-carboxamide]
 | < 100 µM | NC(=O)c1nc(-c2c(F)cccc2F)oc1-c1cccc2ccccc12 [Example F-35, 2-(2,6-difluorophenyl)-5-(naphthalen-1-yl)oxazole-4-carboxamide]

IC50 [1] | IC50 [2] | SMILES
 | < 100 µM | NC(=O)c1nc(-c2c(F)cccc2F)oc1-c1cccc2[nH]ccc12 [Example F-36, 2-(2,6-difluorophenyl)-5-(1H-indol-4-yl)oxazole-4-carboxamide]
 | < 100 µM | NC(=O)c1nc(-c2c(F)cccc2F)oc1-c1cccc2cccnc12 [Example F-37, 2-(2,6-difluorophenyl)-5-(quinolin-8-yl)oxazole-4-carboxamide]
< 10 µM |  | NC(=O)c1nc(-c2c(F)cccc2F)oc1-c1ccc(CNS(=O)(=O)c2ccc(F)cc2)cc1 [Example K-1, 2-(2,6-difluorophenyl)-5-(4-((4-fluorophenylsulfonamido)methyl)phenyl)oxazole-4-carboxamide]
< 10 µM |  | NC(=O)c1nc(-c2c(F)cccc2F)oc1-c1ccc(CNS(=O)(=O)c2ccccc2)cc1 [Example K-2, 2-(2,6-difluorophenyl)-5-(4-(phenylsulfonamidomethyl)phenyl)oxazole-4-carboxamide]
< 10 µM |  | NC(=O)c1nc(-c2c(F)cccc2F)oc1-c1ccc(CNC(=O)c2ccccc2)cc1 [Example L-1, 5-(4-(benzamidomethyl)phenyl)-2-(2,6-difluorophenyl)oxazole-4-carboxamide]
< 10 µM |  | NC(=O)c1nc(-c2c(F)cccc2F)oc1-c1ccc(CNC(=O)c2cccs2)cc1 [Example L-3, 2-(2,6-difluorophenyl)-5-(4-((thiophene-2-carboxamido)methyl)phenyl)oxazole-4-carboxamide]
< 10 µM |  | COc1ccc(-c2oc(-c3cccs3)nc2C(N)=O)cc1 [Example M-1, 5-(4-methoxyphenyl)-2-(thiophen-2-yl)oxazole-4-carboxamide]
< 10 µM |  | COc1ccc(-c2oc(-c3ccsc3)nc2C(N)=O)cc1 [Example M-5, 5-(4-methoxyphenyl)-2-(thiophen-3-yl)oxazole-4-carboxamide]
 | < 100 µM | COc1ccc(-c2oc(-c3ccccc3C(N)=O)nc2C(N)=O)cc1 [Example M-6, 2-(2-carbamoylphenyl)-5-(4-methoxyphenyl)oxazole-4-carboxamide]
< 10 µM |  | NC(=O)c1nc(-c2c(F)cccc2F)oc1-n1cnc2ccccc21 [Example Q-38, 5-(1H-benzo[d]imidazol-1-yl)-2-(2,6-difluorophenyl)oxazole-4-carboxamide]
< 10 µM |  | COc1cc(Nc2oc(-c3c(F)cccc3F)nc2C(N)=O)cc(OC)c1OC [Example Q-40, 2-(2,6-difluorophenyl)-5-(3,4,5-trimethoxyphenylamino)oxazole-4-carboxamide]
< 10 µM |  | NC(=O)c1nc(Nc2cn[nH]c2)oc1-c1ccc(N2CCNCC2)cc1 [Example R-19, 2-(1H-pyrazol-4-ylamino)-5-(4-(piperazin-1-yl)phenyl)oxazole-4-carboxamide]
< 10 µM |  | NC(=O)c1nc(-c2c(F)cccc2F)oc1Nc1ccc(N)cc1 [Example V-1, 5-(4-aminophenylamino)-2-(2,6-difluorophenyl)oxazole-4-carboxamide]
< 100 µM |  | NC(=O)c1nc(-c2c(F)cccc2F)oc1-c1cccc(CN2CCOCC2)c1 [Example X-1, 2-(2,6-Difluorophenyl)-5-(3-(morpholinomethyl)phenyl)oxazole-4-carboxamide]
< 100 µM |  | NC(=O)c1nc(-c2c(F)cccc2F)oc1-c1cccc(CN2CCNC(=O)C2)c1 [Example X-2, 2-(2,6-Difluorophenyl)-5-(3-((3-oxopiperazin-1-yl)methyl)phenyl)oxazole-4-carboxamide]
< 100 µM |  | NC(=O)c1nc(-c2c(F)cccc2F)oc1-c1cccc(CN2CCNCC2)c1 [Example X-3, 2-(2,6-Difluorophenyl)-5-(3-(piperazin-1-ylmethyl)phenyl)oxazole-4-carboxamide formate salt]
< 100 µM |  | NCC1CN(Cc2cccc(-c3oc(-c4c(F)cccc4F)nc3C(N)=O)c2)CCO1 (stereo not shown) [Example X-4, 5-(3-((2-(Aminomethyl)morpholino)methyl)phenyl)-2-(2,6-difluorophenyl)oxazole-4-carboxamide formate salt]
